The results in this text go back to ChEMBL document CHEMBL1122982, “Conformational factors in cardiac glycoside activity” (1985).

Molecules are shown by their SMILES.

The species named for the assay is Cavia porcellus. Nature of the assay: Relative […] activity evaluated in guinea pig left atria. Format: functional.
Molecule `C[C@H]1O[C@H]2O[C@@H]3C[C@@H]4CC[C@@H]5[C@H](CC[C@]6(C)[C@@H](C7=CC(=O)OC7)CC[C@]56O)[C@@]4(C)C[C@H]3O[C@@]2(O)[C@@H](O)[C@H]1O` gave a Relative ionotropic activity of 1.
Take `C[C@@H]1O[C@@H](O[C@H]2CC[C@@]3(C)[C@@H](CC[C@@H]4[C@@H]3CC[C@]3(C)[C@@H](C5=CC(=O)OC5)CC[C@@]43O)C2)C[C@H](O)[C@@H]1O`: the Relative ionotropic activity worked out at 15.
Molecule `C[C@]12CC[C@H](O)C[C@H]1CC[C@@H]1[C@@H]2CC[C@]2(C)[C@@H](C3=CC(=O)OC3)CC[C@]12O` (stereo in doubt) [DIGITOXIGENIN] showed a Relative ionotropic activity of 1.
Consider `C[C@]12CC[C@H](O)C[C@H]1CC[C@@H]1[C@@H]2CC[C@]2(C)[C@@H](C3=CC(=O)OC3)CC[C@]12O` (stereo in doubt; V) [DIGITOXIGENIN], for which the Relative ionotropic activity is 1.2.
With `C[C@@H]1O[C@@H](O[C@H]2CC[C@@]3(C)[C@H](CC[C@@H]4[C@@H]3CC[C@]3(C)[C@@H](C5=CC(=O)OC5)CC[C@]43O)C2)[C@H](O)[C@H](O)[C@H]1O` (stereo in doubt; X), the Relative ionotropic activity is 3.
`C[C@@H]1O[C@@H](O[C@H]2CC[C@@]3(C)[C@H](CC[C@@H]4[C@@H]3CC[C@]3(C)[C@@H](C5=CC(=O)OC5)CC[C@]43O)C2)[C@H](O)[C@H](O)[C@H]1O` (stereo in doubt; form 1) yielded a Relative ionotropic activity of 22.
Consider `C[C@@H]1C[C@H](O)[C@]2(O)O[C@@H]3C[C@@]4(C)[C@@H](CC[C@@H]5[C@@H]4CC[C@]4(C)[C@@H](C6=CC(=O)OC6)CC[C@]54O)C[C@H]3O[C@@H]2O1` (stereo in doubt; form 1) [Gomphoside], for which the Relative ionotropic activity amounted to 23.
`C[C@@H]1O[C@@H](O[C@H]2CC[C@@]3(C)[C@H](CC[C@@H]4[C@@H]3CC[C@]3(C)[C@@H](C5=CC(=O)OC5)CC[C@]43O)C2)[C@H](O)[C@H](O)[C@H]1O` (stereo in doubt; form 2) showed a Relative ionotropic activity of 9.
Regarding `C[C@@H]1C[C@H](O)[C@]2(O)O[C@@H]3C[C@@]4(C)[C@@H](CC[C@@H]5[C@@H]4CC[C@]4(C)[C@@H](C6=CC(=O)OC6)CC[C@]54O)C[C@H]3O[C@@H]2O1` (stereo in doubt; form 2) [Gomphoside], the Relative ionotropic activity is given as 0.2.
In the case of `C[C@@H]1CC(=O)[C@]2(O)O[C@@H]3C[C@@]4(C)[C@@H](CC[C@@H]5[C@@H]4CC[C@]4(C)[C@@H](C6=CC(=O)OC6)CC[C@]54O)C[C@H]3O[C@@H]2O1` [Didehydro Gomphoside], the Relative ionotropic activity was 2.5.
